Source: ChEMBL document CHEMBL4354822, “Ligand-Based Design of Nondimethylphenyl-Diarylpyrimidines with Improved Metabolic Stability, Safety, and Oral Pharmacokinetic Profiles” (J Med Chem, 2019)

Experiments:
[1] = system: Human immunodeficiency virus 1; assay: Antiviral activity against HIV1 3B infected in human MT4 cells incubated assessed as reduction in virus-induced cytopathic effect for 5 days by MTT assay; type: functional, organism-based; conditions: Human immunodeficiency virus 1, 3B, MT4, 120 h
MT4 = assay: Cytotoxicity against human MT4 cells assessed as reduction in cell viability incubated for 5 days by MTT assay; type: functional; conditions: MT4, 120 h
[2] = Selectivity index, ratio of CC50 for human MT4 cells to EC50 for antiviral activity against HIV1 3B infected in human MT4 cells incubated for 5 days by MTT assay; type: toxicity, cell-based; conditions: MT4 cells (uninfected for CC50; HIV-1 3B infected for EC50)
[3] = system: Human immunodeficiency virus 1; assay: Ratio of EC50 for rilpivirine to EC50 for test compound for antiviral activity against HIV1 harboring reverse transcriptase L100I mutant infected in human MT4 cells assessed as reduction in virus-induced cytopathic effect incubated for 5 days by MTT assay; type: functional
[4] = system: Human immunodeficiency virus 1; assay: Ratio of EC50 for efavirenz to EC50 for test compound for antiviral activity against HIV1 harboring reverse transcriptase L100I mutant infected in human MT4 cells assessed as reduction in virus-induced cytopathic effect incubated for 5 days by MTT assay; type: functional
[5] = system: Human immunodeficiency virus 1; assay: Ratio of EC50 for etravirine to EC50 for test compound for antiviral activity against HIV1 harboring reverse transcriptase L100I mutant infected in human MT4 cells assessed as reduction in virus-induced cytopathic effect incubated for 5 days by MTT assay; type: functional
[6] = system: Human immunodeficiency virus 1; assay: Antiviral activity against HIV1 harboring reverse transcriptase L100I mutant infected in human MT4 cells assessed as reduction in virus-induced cytopathic effect incubated for 5 days by MTT assay; type: functional, organism-based; conditions: Human immunodeficiency virus 1, MT4, 120 h
[7] = system: Human immunodeficiency virus 1; assay: Antiviral activity against HIV1 harboring reverse transcriptase K103N mutant infected in human MT4 cells assessed as reduction in virus-induced cytopathic effect incubated for 5 days by MTT assay; type: functional, organism-based; conditions: Human immunodeficiency virus 1, MT4, 120 h
[8] = system: Human immunodeficiency virus 1; assay: Antiviral activity against HIV1 harboring reverse transcriptase Y181C mutant infected in human MT4 cells assessed as reduction in virus-induced cytopathic effect incubated for 5 days by MTT assay; type: functional, organism-based; conditions: Human immunodeficiency virus 1, MT4, 120 h
[9] = system: Human immunodeficiency virus 1; assay: Antiviral activity against HIV1 harboring reverse transcriptase Y188L mutant infected in human MT4 cells assessed as reduction in virus-induced cytopathic effect incubated for 5 days by MTT assay; type: functional, organism-based; conditions: Human immunodeficiency virus 1, MT4, 120 h
[10] = system: Human immunodeficiency virus 1; assay: Antiviral activity against HIV1 harboring reverse transcriptase E138K mutant infected in human MT4 cells assessed as reduction in virus-induced cytopathic effect incubated for 5 days by MTT assay; type: functional, organism-based; conditions: Human immunodeficiency virus 1, MT4, 120 h
[11] = molecular target: Human immunodeficiency virus type 1 reverse transcriptase (Human immunodeficiency virus 1, UniProt Q72547); assay: Inhibition of recombinant wild type HIV1 reverse transcriptase p66/p51 incubated for 40 mins by picogreen dye-based spectrofluorometric analysis
[12] = molecular target: Human immunodeficiency virus type 1 reverse transcriptase (Human immunodeficiency virus 1) (UniProt Q72547); assay: Ratio of IC50 for nevirapine to IC50 for test compound for recombinant wild type HIV1 reverse transcriptase p66/p51
[13] = Aqueous solubility of compound at 2 mg measured for 24 hrs by HPLC analysis; type: physicochemical; conditions: aqueous medium
[14] = Metabolic stability in human liver microsomes at 1 uM measured up to 45 mins in presence of NADPH by LC/MS/MS analysis; type: ADME, Microsome
[15] = Metabolic stability in rat liver microsomes at 1 uM measured up to 45 mins in presence of NADPH by LC/MS/MS analysis; type: ADME, Microsome; conditions: liver microsomes
[16] = Intrinsic clearance in human liver microsomes assessed per mg protein at 1 uM measured up to 45 mins in presence of NADPH by LC/MS/MS analysis; type: ADME, Microsome; conditions: read-out: CLH
[17] = Intrinsic clearance in rat liver microsomes assessed per mg protein at 1 uM measured up to 45 mins in presence of NADPH by LC/MS/MS analysis; type: ADME, Microsome; conditions: liver microsomes, read-out: CLH
[18] = Oral bioavailability in Sprague-Dawley rat at 1 mg/kg measured after 24 hrs by LCMS analysis; type: ADME, organism-based; conditions: in vivo

Row | k el at 0.75 h, 1 µM [14] [s⁻¹] | half-life at 1 µM [15] [min] | k el at 0.75 h, 1 µM [15] [s⁻¹] | microsomal CLint at 1 µM [16] [µL/min/mg] | microsomal CLint at 1 µM [17] [µL/min/mg] | bioavailability [18] [%] | SMILES | EC50 [1] [nM] | CC50 (MT4) [nM] | selectivity ratio at 120 h [2] | Ratio EC50 [3] | Ratio EC50 [4] | Ratio EC50 [5] | EC50 [6] [nM] | EC50 [7] [nM] | EC50 [8] [nM] | EC50 [9] [nM] | EC50 [10] [nM] | IC50 [11] [nM] | Ratio IC50 [12] | solubility at 24 h [13] [µg/mL]
1 | – | – | – | – | – | – | Cc1cc(-c2ccc(C#N)cc2)cc(Cl)c1Oc1ccnc(Nc2ccc(C#N)cc2)n1 | 3.4 | > 286000 | > 86200 | 2 - 568 | 2 - 568 | 2 - 568 | < 3.7 | < 4.3 | 10.5 | 200 | 6.6 | 10.8 | 21 to 109 | –
2 | – | – | – | – | – | – | N#Cc1ccc(Nc2nccc(Nc3c(F)cc(-c4ccc(C#N)cc4)cc3F)n2)cc1 | 1.3 | > 295000 | > 238000 | – | – | – | 10.8 | 2.6 | 6.1 | 130 | 1.9 | 4.7 | – | < 1
3 | – | – | – | – | – | – | Cc1cc(C#N)cc(C)c1Oc1nc(Nc2ccc(C#N)cc2)nc(N)c1Br [ETRAVIRINE] | 6.3 | > 4610 | – | – | – | – | 7.1 | – | 12 | – | 6.5 | – | – | < 1
4 | 0.00079 | 15.4 | 0.00075 | 47.4 | 45 | – | Cc1cc(-c2ccc(C#N)cc2)cc(C)c1Nc1ccnc(Nc2ccc(C#N)cc2)n1 | – | – | – | – | – | – | – | – | – | – | – | – | – | < 1
5 | – | – | – | – | – | 32 | Cc1cc(/C=C/C#N)cc(C)c1Nc1ccnc(Nc2ccc(C#N)cc2)n1.Cl [RILPIVIRINE HYDROCHLORIDE] | – | – | – | – | – | – | – | – | – | – | – | – | – | –
